Measurements as given in ChEMBL document CHEMBL2046354, “Identification of spirocyclic piperidine-azetidine inverse agonists of the ghrelin receptor” (Bioorg Med Chem Lett, 2012).

Test: Oral bioavailability in Sprague-Dawley rat at 30 mg/kg
Format: ADME, organism-based
Settings: in vivo

SMILES: Cc1cn2cc(CC(=O)N3CCC4(CC3)CN(Cc3ccc(-n5nccn5)cc3Cl)C4)nc2s1
- bioavailability: 43%
